The test addresses T1, h5-HT4b (Homo sapiens, UniProt Q13639).
T1 construct: expressed in transfected cells; host or cells: HEK 293 (clone 9), membrane preparation
As to the kind of experiment: 5HT4 antagonism: [3H]GR113808 binding to membranes of h5-HT4b-HEK 293 clone 9 cells. To be noted: displacement of [3H]GR113808 0.1 nM, h5-HT4b-HEK 293 membranes, 30 min at 25° C.; read-out: pIC50 (5HT4 antagonistic data) (converted). On the procedure: h5-HT4b-HEK 293 clone 9 cells were cultured in 150 mm Petri dishes and washed twice with cold PBS. The cells were then scraped from the plates and suspended in 50 mM Tris-HCl buffer, pH 7.4 and harvested by centrifugation at 23,500 rpm for 10 minutes. The pellet was resuspended in 5 mM Tris-HCl, pH 7.4 and homogenized with an Ultra Turrax homogenizer. The membranes were collected by centrifugation at 30,000 rpm for 20 min, resuspended in 50 mM Tris-HCl pH 7.4 and stored at −80° C. For the experiment, assay mixtures (0.5 ml) contained 50 μl of the tritiated ligand (5-HT4 antagonist [^3H]GR113808 0.1 nM) and 0.4 ml membrane preparation (15 μg protein/ml). 50 μl of 10% DMSO was added for total binding. 50 μl of 1 μM of (+)-trans-(1-butyl-3-hydroxy-4-piperidinyl)methyl 8-amino-7-chloro-2,3-dihydro-1,4-benzodioxin-5-carboxylate (a proprietary 5HT4 agonist of Janssen Pharmaceutica) was added for determination of non-specific binding.
The [^3H]GR113808 assay buffer was 50 mM HEPES-NaOH, pH 7.4. The mixtures were incubated for 30 min at 25° C. The incubation was terminated by filtration over a Unifilter 96 GF/B presoaked in 0.1% polyethylenimine, followed by six washing steps with 50 mM HEPES-NaOH, pH 7.4.

T1 sequence (Q13639 whole entry): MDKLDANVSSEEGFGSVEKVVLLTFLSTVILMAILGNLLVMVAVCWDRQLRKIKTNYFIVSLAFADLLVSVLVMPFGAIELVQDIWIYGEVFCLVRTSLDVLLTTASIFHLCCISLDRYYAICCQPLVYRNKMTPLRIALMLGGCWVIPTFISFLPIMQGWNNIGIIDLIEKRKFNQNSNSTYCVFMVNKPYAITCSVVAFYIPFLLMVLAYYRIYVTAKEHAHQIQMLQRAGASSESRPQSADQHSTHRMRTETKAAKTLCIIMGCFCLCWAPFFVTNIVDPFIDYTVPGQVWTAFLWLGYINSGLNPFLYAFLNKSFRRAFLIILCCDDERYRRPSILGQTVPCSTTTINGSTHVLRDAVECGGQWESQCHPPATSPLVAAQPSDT

For the molecule `N#CCCCN1CC[C@@H](CNC(=O)c2cc(N)cc3c2OCCCO3)[C@H](O)C1` [compound 3], the IC50 is 0.038 µM.
Then `Nc1cc2c(c(C(=O)NC[C@@H]3CCN(CC4CCCO4)C[C@H]3O)c1)OCCCO2` (stereo partly shown) [compound 4], with 0.0692 µM.
As for `Cc1cc2c(c(C(=O)NC[C@@H]3CCNC[C@H]3O)c1)OCCCO2` [compound 5], the IC50 is 0.0646 µM.
Then `N#CCCCN1CC[C@@H](CNC(=O)c2cc(N)cc3c2OCCO3)[C@H](O)C1` [compound 6], with 0.0575 µM; and `Nc1cc(C(=O)NC[C@@H]2CCN(CCCO)C[C@H]2O)c2c(c1Cl)OCCO2` [compound 7], with 0.0178 µM; and `Nc1cc(C(=O)NC[C@@H]2CCNC[C@H]2O)c2c(c1Cl)OCCO2` [compound 8], with 0.372 µM.
Then `COCCCN1CC[C@@H](CNC(=O)c2cc(N)c(Cl)c3c2OCCO3)[C@H](O)C1` [compound 9], with 0.0162 µM; and `Nc1cc(C(=O)NC[C@@H]2CCN(CC3CCCO3)C[C@H]2O)c2c(c1Cl)OCCO2` (stereo partly shown) [compound 10], with 0.00603 µM; and `CNc1cc2c(c(C(=O)NC[C@@H]3CCN(CCCO)C[C@H]3O)c1)OCCO2` [compound 12], with 0.0417 µM.
Then `CNc1cc2c(c(C(=O)NC[C@@H]3CCN(CCC4OCCO4)C[C@H]3O)c1)OCCCO2` [compound 13], with 0.708 µM; and `Nc1cc(C(=O)NC[C@@H]2CCN(CCC3OCCO3)C[C@H]2O)c2c(c1Cl)OCCO2` [compound 14], with 0.0166 µM; and `N#CCCCN1CC[C@@H](CNC(=O)c2cc(N)c(Cl)c3c2OCCO3)[C@H](O)C1` [compound 15], with 0.0302 µM.
As to `CNc1cc2c(c(C(=O)NC[C@@H]3CCN(CCC4OCCO4)C[C@H]3O)c1)OCCO2` [compound 17], the IC50 was 0.0257 µM.
Then `Nc1cc2c(c(C(=O)NC[C@@H]3CCN(CCCC(=O)O)C[C@H]3O)c1)OCCO2` [compound 18], with 0.195 µM; and `CNc1cc2c(c(C(=O)NC[C@@H]3CCN(CC4CCCO4)C[C@H]3O)c1)OCCO2` (stereo partly shown) [compound 19], with 0.0174 µM.
As for `CNc1cc2c(c(C(=O)NC[C@@H]3CCN(CCCC#N)C[C@H]3O)c1)OCCO2` [compound 20], the IC50 is 0.0525 µM.
Consider `CNc1cc2c(c(C(=O)NC[C@@H]3CCN(CC4CCCO4)C[C@H]3O)c1)OCCCO2` (stereo partly shown) [compound 21], for which the IC50 was 0.0631 µM.
Then `Nc1cc2c(c(C(=O)NC[C@@H]3CCN(CC4CCCO4)C[C@H]3O)c1)OCCO2` (stereo partly shown) [compound 22], with 0.0178 µM; and `CC(C)OCCCN1CC[C@@H](CNC(=O)c2cc(N)cc3c2OCCO3)[C@H](O)C1` [compound 23], with 0.0191 µM; and `Nc1cc(C(=O)NC[C@@H]2CCN(CCCC(=O)O)C[C@H]2O)c2c(c1Cl)OCCO2` [compound 25], with 0.138 µM.
Then `CNc1cc2c(c(C(=O)NC[C@@H]3CCN(CCCC(=O)O)C[C@H]3O)c1)OCCCO2` [compound 27], with 2.63 µM.
Then `CCCCN1CC[C@@H](CNC(=O)c2cc(NC)c(Cl)c3c2OCCO3)[C@H](O)C1` [compound 28], with 0.0155 µM; and `COCCCCN1CC[C@@H](CNC(=O)c2cc(N)c(Cl)c3c2OCCO3)[C@H](O)C1` [compound 29], with 0.011 µM.
With `CNc1cc(C(=O)NC[C@@H]2CCN(CCC3OCCO3)C[C@H]2O)c2c(c1Cl)OCCO2` [compound 30], the IC50 is 0.0316 µM.
Then `Nc1cc(C(=O)NC[C@@H]2CCN(CCCOC3CCCCC3)C[C@H]2O)c2c(c1Cl)OCCO2` [compound 31], with 0.00331 µM; and `COCCN1CC[C@@H](CNC(=O)c2cc(N)cc3c2OCCO3)[C@H](O)C1` [compound 32], with 0.0631 µM.
Then `CNc1cc2c(c(C(=O)NC[C@@H]3CCN(CCCOC4CCCCC4)C[C@H]3O)c1)OCCCO2` [compound 34], with 0.0316 µM; and `CNc1cc2c(c(C(=O)NC[C@@H]3CCN(CCOC)C[C@H]3O)c1)OCCO2` [compound 35], with 0.0447 µM.
As for `CNc1cc2c(c(C(=O)NC[C@@H]3CCN(CCCOC(C)C)C[C@H]3O)c1)OCCO2` [compound 36], the IC50 is 0.0214 µM.
On to `CC(C)OCCCN1CC[C@@H](CNC(=O)c2cc(N)cc3c2OCCCO3)[C@H](O)C1` [compound 37], for which the IC50 was 0.0363 µM.
Then `CNc1cc2c(c(C(=O)NC[C@@H]3CCN(CCCC#N)C[C@H]3O)c1)OCCCO2` [compound 38], with 0.288 µM.
Then `Nc1cc2c(c(C(=O)NC[C@@H]3CCN(CCCC(=O)O)C[C@H]3O)c1)OCCCO2` [compound 39], with 1.23 µM; and `CNc1cc2c(c(C(=O)NC[C@@H]3CCN(CCCOC4CCCCC4)C[C@H]3O)c1)OCCO2` [compound 40], with 0.00692 µM.
Then `COCCCCN1CC[C@@H](CNC(=O)c2cc(N)cc3c2OCCO3)[C@H](O)C1` [compound 41], with 0.0155 µM.
Regarding `COCCN1CC[C@@H](CNC(=O)c2cc(N)c(Cl)c3c2OCCO3)[C@H](O)C1` [compound 42], the IC50 is 0.0186 µM.
As for `CC1(CCCN2CC[C@@H](CNC(=O)c3cc(N)c(Cl)c4c3OCCO4)[C@H](O)C2)OCCO1` [compound 43], the IC50 is 0.0132 µM.
Then `COCCN1CC[C@@H](CNC(=O)c2cc(N)cc3c2OCCCO3)[C@H](O)C1` [compound 45], with 0.135 µM; and `CCCCN1CC[C@@H](CNC(=O)c2cc(N)c(Cl)c3c2OCCCO3)[C@H](O)C1` [compound 46], with 0.00832 µM.
Then `COCCCN1CC[C@@H](CNC(=O)c2cc(N)c(Cl)c3c2OCCCO3)[C@H](O)C1` [compound 47], with 0.0316 µM; and `N#CCCCN1CC[C@@H](CNC(=O)c2cc(N)c(Cl)c3c2OCCCO3)[C@H](O)C1` [compound 48], with 0.0331 µM; and `Nc1cc2c(c(C(=O)NC[C@@H]3CCN(CCCOC4CCCCC4)C[C@H]3O)c1)OCCCO2` [compound 49], with 0.0257 µM.
Then `Nc1cc(C(=O)NCC2CCN(CC3CCCO3)C[C@H]2O)c2c(c1Cl)OCCCO2` (stereo partly shown) [compound 51], with 0.0145 µM; and `Nc1cc(C(=O)NC[C@@H]2CCN(CCC3OCCO3)C[C@H]2O)c2c(c1Cl)OCCCO2` [compound 52], with 0.0148 µM; and `Nc1cc(C(=O)NC[C@@H]2CCN(CCCCO)C[C@H]2O)c2c(c1Cl)OCCO2` [compound 53], with 0.02 µM.
Turning to `CNc1cc2c(c(C(=O)NC[C@@H]3CCN(CCCCOC)C[C@H]3O)c1)OCCO2` [compound 54], the IC50 is 0.0148 µM.
Then `Nc1cc2c(c(C(=O)NC[C@@H]3CCN(Cc4ccc(F)cc4)C[C@H]3O)c1)OCCCO2` [compound 55], with 0.0646 µM.
Then `CNc1cc2c(c(C(=O)NC[C@@H]3CCN(Cc4ccc(F)cc4)C[C@H]3O)c1)OCCO2` [compound 56], with 0.0178 µM; and `COCCCCN1CC[C@@H](CNC(=O)c2cc(N)c(Cl)c3c2OCCCO3)[C@H](O)C1` [compound 58], with 0.0141 µM; and `CC1(CCCN2CC[C@@H](CNC(=O)c3cc(N)cc4c3OCCCO4)[C@H](O)C2)OCCO1` [compound 59], with 0.0513 µM.
As for `CC(=O)CCCN1CC[C@@H](CNC(=O)c2cc(N)cc3c2OCCCO3)[C@H](O)C1` [compound 60], the IC50 was 0.0813 µM.
Then `CNc1cc2c(c(C(=O)NC[C@@H]3CCN(CCCC(C)=O)C[C@H]3O)c1)OCCO2` [compound 61], with 0.0145 µM.
As to `CNc1cc2c(c(C(=O)NC[C@@H]3CCN(CCCCOC)C[C@H]3O)c1)OCCCO2` [compound 62], the IC50 was 0.0813 µM.
